Data set [1] has as its system ORYSAT (Rice, Tebonnet). As to the kind of experiment: Preemergence herbicidal evaluation. Format: in vivo, Oryza sativa, (L.) Tebonnet. The following applies: rated 4-5 weeks after treatment. The method, boiled down:
(§1)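 Each species is sown separately in potting soil over roughly an inch of soil before any emergence. The soil surface then receives an aqueous acetone spray delivering about 0.0156 to 0.500 kg/ha of compound. After four to five weeks, injury is scored from 0 to 9 relative to a control.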

In data set [2] the test system is TRZAWR (Wheat, Winter, cv Riband). As to the kind of experiment: Postemergence herbicidal evaluation. In kind it is in vivo, Triticum aestivum. An outline of the steps:
(§2)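 Young plants, roughly two weeks from seeding, receive the active ingredient as a sprayed dispersion (acetone/water 50/50, 0.5% TWEEN 20) at 40 psi. Doses span about 0.0156 to 0.500 kg/ha. A visual score from 0 to 9 compares treated with control plants four to five weeks on.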

For a further data set, the system named is CASOB (Sicklepod). In words: Postemergence herbicidal evaluation. In kind it is in vivo, Cassia obtusifolia. The method, boiled down:
as §2

Data set [3] relates to CHEAL (Lambsquarters, Common). As to the kind of experiment: Preemergence herbicidal evaluation. In kind it is in vivo, Chenopodium album. The settings on record: rated 4-5 weeks after treatment. The method, boiled down:
as §1

Data set [4] has as its system CHEAL (Lambsquarters, Common). As to the kind of experiment: Postemergence herbicidal evaluation. Format: in vivo, Chenopodium album. The method, boiled down:
as §2

In a further data set the test system is MOOVA (Monochoria). As to the kind of experiment: Postemergence weed control under flooded paddy conditions. In kind it is in vivo, Monochoria vaginalis. The settings on record: postemergence weeds, 3-4 weeks after treatment. The method, boiled down:
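Herbicidal effect is judged by eye on a 0–9 scale versus control, 3–4 weeks after dosing. Dosing is into flood water kept 1.5–3 cm over the soil, at about 0.0313–0.500 kg/ha in aqueous/acetone 50/50 v/v, on 3–5 cm weeds and 1.5–2.5-leaf rice seedlings.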

For data set [5], the system named is ORYSAT (Rice, Tebonnet). As to the kind of experiment: Rice tolerance to post-transplant applications, flooded paddy conditions (Table III). Format: in vivo, Oryza sativa, (L.) Tebonnet. The following applies: in vivo. The method, boiled down:
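Injury scored 0-9 by eye against untreated control, judging stand, vigor, malformation, size and chlorosis, three to four weeks after treatment. Compound in 50/50 aqueous/acetone, about 0.0313 to 0.500 kg/ha, was applied to paddy water (1.5 to 3 cm depth) three days after transplanting paired ten-day-old Tebonnet rice seedlings.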

The test system of data set [6] is ORYSAT (Rice, Tebonnet). In words: Rice tolerance to post-transplant applications, flooded paddy conditions (Table IV). Format: in vivo, Oryza sativa, (L.) Tebonnet. The settings on record: in vivo. An outline of the steps: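 Post-transplant paddy test in greenhouse: a.i. about 0.0313 to 0.500 kg/ha applied into the flood water. Plants are rated 0-9 for overall appearance relative to control three to four weeks on.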

Regarding `C[C@@H](C(=O)O)N1C(=O)CS/C1=N/c1cc(-n2c(=O)cc(C(F)(F)F)n(C)c2=O)c(F)cc1Cl` [Compound 51, 2-{{2-Chloro-5-[3,6-dihydro-3-methyl-2,6-dioxo-4-(trifluoromethyl)-1(2H)-pyrimidinyl]-4-fluoro-phenyl}imino}-α-methyl-4-oxo-3-thiazolidineacetic acid, L-], the “Preemergence herbicidal rating ORYSAT” value in the data set with ORYSAT (Rice, Tebonnet) [1] (rate 0.0156 kg/ha) was found to be 0.0; with ORYSAT (Rice, Tebonnet) [1] (rate 0.0313 kg/ha), 1.0; in the data set on ORYSAT (Rice, Tebonnet) [1] (rate 0.0625 kg/ha), 1.0; in the data set on ORYSAT (Rice, Tebonnet) [1] (rate 0.1250 kg/ha), 1.0; with ORYSAT (Rice, Tebonnet) [1] (rate 0.2500 kg/ha), 7.0. For the same compound, the “Postemergence herbicidal rating TRZAWR” value amounted to 4.0 in data set [2] (Rate 0.0158 kg/ha), 5.5 in data set [2] (Rate 0.0315 kg/ha) and 7.0 in data set [2] (Rate 0.0630 kg/ha). The “Postemergence herbicidal rating CASOB” value in the data set on CASOB (Sicklepod) (Rate 0.0158 kg/ha) is given as 2.0; with CASOB (Sicklepod) (Rate 0.0315 kg/ha) it was 2.0; in the data set on CASOB (Sicklepod) (Rate 0.0630 kg/ha), 7.0. Also, the “Preemergence herbicidal rating CHEAL” value was 3.0 in data set [3] (rate 0.0156 kg/ha); 9.0 in data set [3] (rate 0.0313 kg/ha); 9.0 in data set [3] (rate 0.0625 kg/ha); 9.0 in data set [3] (rate 0.1250 kg/ha); 9.0 in data set [3] (rate 0.2500 kg/ha). For the same compound, the “Postemergence herbicidal rating CHEAL” value in data set [4] (Rate 0.0158 kg/ha), in data set [4] (Rate 0.0315 kg/ha) and in data set [4] (Rate 0.0630 kg/ha) was 9.0 in each case. For the same compound, the “Herbicidal rating MOOVA” value in the data set on MOOVA (Monochoria) (rate 0.0625 kg/ha) was determined as 3.0; in the data set with MOOVA (Monochoria) (rate 0.1250 kg/ha) it was 4.0; in the data set on MOOVA (Monochoria) (rate 0.2500 kg/ha) it was 4.0. For the same compound, the “Herbicidal rating ORYSAT (rice tolerance)” value with ORYSAT (Rice, Tebonnet) [5] is recorded as 0.0; with ORYSAT (Rice, Tebonnet) [6], 0.0.
Consider `CCOC(=O)CN1C(=O)C(CC(=O)O)SC1=Nc1cc(-n2c(=O)cc(C(F)(F)F)n(C)c2=O)c(Cl)cc1Cl` (centres unmarked) [Compound 33, 2-{{2,4-Dichloro-5-[3,6-dihydro-3-methyl-2,6-dioxo-4-(trifluoromethyl)-1(2H)-pyrimidinyl]phenyl}-imino}-4-oxo-3,5-thiazolidinediacetic acid, 3-ethyl ester], for which the “Preemergence herbicidal rating ORYSAT” value is listed as 0.0 with ORYSAT (Rice, Tebonnet) [1] (rate 0.0156 kg/ha); 0.0 with ORYSAT (Rice, Tebonnet) [1] (rate 0.0313 kg/ha); 0.0 in the data set with ORYSAT (Rice, Tebonnet) [1] (rate 0.0625 kg/ha); 0.0 in the data set on ORYSAT (Rice, Tebonnet) [1] (rate 0.1250 kg/ha); 0.0 in the data set with ORYSAT (Rice, Tebonnet) [1] (rate 0.2500 kg/ha). Besides, the “Postemergence herbicidal rating TRZAWR” value is given as 3.5 in data set [2] (Rate 0.0158 kg/ha), 5.5 in data set [2] (Rate 0.0315 kg/ha) and 6.0 in data set [2] (Rate 0.0630 kg/ha). Moreover, the “Postemergence herbicidal rating CASOB” value was determined as 0.0 with CASOB (Sicklepod) (Rate 0.0158 kg/ha), 1.0 in the data set on CASOB (Sicklepod) (Rate 0.0315 kg/ha) and 5.0 in the data set with CASOB (Sicklepod) (Rate 0.0630 kg/ha). Further, the “Preemergence herbicidal rating CHEAL” value in data set [3] (rate 0.0156 kg/ha) amounted to 4.0; in data set [3] (rate 0.0625 kg/ha) it was 7.0; in data set [3] (rate 0.1250 kg/ha), 9.0; in data set [3] (rate 0.2500 kg/ha), 9.0. Moreover, the “Postemergence herbicidal rating CHEAL” value in data set [4] (Rate 0.0158 kg/ha), in data set [4] (Rate 0.0315 kg/ha) and in data set [4] (Rate 0.0630 kg/ha) was 9.0 in each case. Moreover, the “Herbicidal rating ORYSAT (rice tolerance)” value in the data set with ORYSAT (Rice, Tebonnet) [5] is recorded as 0.0; in the data set with ORYSAT (Rice, Tebonnet) [6] it was 0.0.

The record behind these values is patent US20020137929A1, “1 - (3-heterocyclylphenyl) isothiourea, -isourea, -guanidine and -amidine herbicidal agents” (Intellectual Property Department, BASF Aktiengesellschaft, priority 1998, published 2002).
